One data set deals with T1, Recombinant human MMP2 (Homo sapiens, UniProt P08253).
T1 construct: purchased R&D Systems
T1 sequence (P08253 110-660): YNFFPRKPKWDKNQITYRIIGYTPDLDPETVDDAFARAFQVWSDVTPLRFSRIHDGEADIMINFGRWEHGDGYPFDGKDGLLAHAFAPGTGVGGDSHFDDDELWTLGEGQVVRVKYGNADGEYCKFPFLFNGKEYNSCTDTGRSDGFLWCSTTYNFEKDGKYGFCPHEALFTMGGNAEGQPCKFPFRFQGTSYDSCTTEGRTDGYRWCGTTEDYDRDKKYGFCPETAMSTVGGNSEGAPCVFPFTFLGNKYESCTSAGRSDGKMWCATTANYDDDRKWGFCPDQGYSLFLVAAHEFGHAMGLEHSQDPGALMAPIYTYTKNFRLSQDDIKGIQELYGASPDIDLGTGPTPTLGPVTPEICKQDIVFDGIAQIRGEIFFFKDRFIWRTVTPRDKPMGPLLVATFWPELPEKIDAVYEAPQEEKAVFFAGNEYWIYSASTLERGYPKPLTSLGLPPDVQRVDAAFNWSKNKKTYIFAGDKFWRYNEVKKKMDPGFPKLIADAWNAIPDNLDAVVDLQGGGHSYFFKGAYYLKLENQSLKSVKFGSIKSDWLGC
Kind of data set: MMP2 activity assay on MSLPs (HPLC). It is filed as biochemical. The following applies: 48 h, 37 °C, 0.1 μg/mL rhMMP2, 100 μM MSLP, 50 mM Tris, 10 mM CaCl2, 150 mM NaCl, 0.05% Brij 35, pH 7.5. The protocol: (§1) Recombinant human MMP2 (rhMMP2, R&D system, Minneapolis, MN, USA) was diluted to 0.2 μg/mL in 200 µL assay buffer (50 mm Tris, 10 mM CaCl2, 150 mm NaCl, 0.05% (w/v) Brij 35, pH 7.5). The enzymatic reaction was started by adding 200 μL of 200 μM MSLPs in the assay buffer, and was stirred at 37 °C for 48 h. Final concentrations were 0.1 μg/mL for MMP2 and 100 μM for MSLPs. The reaction was monitored by HPLC between 1 and 48 h on a small aliquot, by deactivating the enzyme with a 10% aqueous TFA solution. MSLPs’ solutions in assay buffer (see below) were used as a blank. A pronase/unspecific protease activity assay on MSLPs was carried out by diluting a mixture of proteolytic enzymes at 2 ng/mL, 0.2 µg/mL and 20 µg/mL in 200 µL assay buffer (50 mm Tris, 10 mm CaCl2, 150 mm NaCl, 0.05% (w/v) Brij 35, pH 7.5). The enzymatic reaction was started by adding 200 μL of 200 μM MSLPs in the assay buffer, and was stirred at 37 °C for 48 h. Final concentrations of 1 ng/mL, 0.1 μg/mL and 10 μg/mL (Pronase) and 100 μM (MSLPs) were used. The reaction was monitored by HPLC between 1 and 48 h on a small aliquot, by deactivating the enzymes with a 10% aqueous TFA solution. MSLPs’ solutions in assay buffer were used as a blank.

The test system of another data set is pronase. Briefly: Pronase/unspecific protease activity assay on MSLPs (HPLC). It is filed as biochemical. The following applies: 100 μM MSLP, 37 °C, up to 48 h, assay buffer pH 7.5. The method, then: as §1
For data set [1], the system named is primary neurons. Kind of data set: CCK8 cell viability assay on primary neurons. It is filed as cell-based. The settings on record: primary mouse cortical neurons, 16 days in vitro; 24 h; 0.085, 0.85, 8.5 and 85 µM glibenclamide; compared with DMSO controls. The protocol: C57BL6J mice were maintained under pathogen-free conditions at San Raffaele Hospital mouse facility (Milan, Italy). Procedures were performed according to the guidelines of the Institutional Animal Care and Use Committee of the San Raffaele Scientific Institute and the Ministry of Health (protocol number 372/2021-PR). Primary neuronal cell cultures were established from C57Bl/6J E17.5 embryonic cerebral cortices (Charles River), according to our published protocol. Briefly, we dissected forebrains in cold HBSS supplemented with 0.6% glucose and 5 mM HEPES pH 7.4 to obtain cerebral cortices. Cortices were mechanically dissociated in single cell preparations and re-suspended in culture medium containing Neurobasal, 5 mM HEPES pH 7.4, 0.6% glucose and the 1× B27 supplement. Cells were plated at 30,000 cells/well on 96 multi wells previously coated with poly lysine (0.2 mg/mL), and primed with Dulbecco’s modified Eagle’s media (DMEM) 20% FBS. Cells were maintained in a humidified 5% CO2/95% air environment at 37 °C. […] Cell viability was measured using the Cell Counting Kit-8 (CCK8) Metabolic Assay Kit, following the manufacturer’s protocol (Sigma-Aldrich, Burlington, VT, USA). […] We measured samples absorbance every 30 min at 450 nm, using a Multiskan Sky (Thermo fisher scientific, Waltham, MA, USA). Absorbance readings were subsequently normalized to the mean value of the controls.

Data set [2] relates to primary neurons. Kind of data set: LDH-Glo cytotoxicity assay on primary neurons. Format: cell-based. The settings on record: primary mouse cortical neurons; 24 h; 0.085, 0.85, 8.5 and 85 µM glibenclamide; supernatants.
Method: Primary neuronal cell cultures were established from C57Bl/6J E17.5 embryonic cerebral cortices (Charles River), according to our published protocol [37]. Briefly, we dissected forebrains in cold HBSS supplemented with 0.6% glucose and 5 mM HEPES pH 7.4 to obtain cerebral cortices. Cortices were mechanically dissociated in single cell preparations and re-suspended in culture medium containing Neurobasal, 5 mM HEPES pH 7.4, 0.6% glucose and the 1× B27 supplement. Cells were plated at 30,000 cells/well on 96 multi wells previously coated with poly lysine (0.2 mg/mL), and primed with Dulbecco’s modified Eagle’s media (DMEM) 20% FBS. […] Neurons were left to mature for 16 days, and upon visual inspection were used for cytotoxicity assays.
A bioluminescent lactate dehydrogenase (LDH)-release assay (LDH-Glo Cytotoxicity Assay, Promega) was used to assess cytotoxicity in supernatants of cells treated with liposomes according to manufacturer’s instruction. […] In each experiment, we calculated the % of cytotoxicity as follows:(Exp.LDH Release − MB)/(Max LDH Release Control − MB)(2) where MB is Medium Background.
Data set [3] has as its system TNFα release from BV2 microglial cells. Kind of data set: TNFα ELISA in LPS-stimulated BV2 cells. It is filed as cell-based, mouse. The following applies: free glibenclamide 10 to 80 μM for 60 h, then LPS for 8 h. The protocol:
(§2) BV2 microglial cells, RAW264.7 and Neuro2A (N2A) cells were cultured in DMEM supplemented with 10% heat-inactivated FBS, 100 U/mL penicillin and 100 μg/mL streptomycin at 37 °C in a humidified 5% CO2 atmosphere. The day before the experiment, BV2 cells were plated on 24 well plates at 80,000 cells/well; LPS was dissolved in PBS as a stock solution (1 mg/mL), and stored at −20 °C. BV2 cells seeded into multiplates were exposed to LPS (0.5 µg/mL) in presence or absence of glibenclamide (40 µM), empty mApoE-MSLP1-liposomes and mApoE-MSLP1 loaded with glibenclamide. Cells were left in vitro for 40 or 60 h, treated with LPS for additional 8 h before using supernatants for an ELISA assessment of TNFα and IL-6. BV2 cells were seeded in 24-well plates at 80,000 cells/well, then treated with LPS (0.5 µg/mL) to induce TNFα and IL-6 production. Cells were treated for 8 h. Cytokine levels in cells supernatants collected before and after treatment were assayed using the mouse TNF-alpha DuoSet ELISA (R&D Systems, DY410) and the mouse IL-6 DuoSet ELISA kit (R&D Systems, DY406), according to manufacturer’s instructions.

Data set [4] has as its system IL-6 release from BV2 microglial cells. Kind of data set: IL-6 ELISA in LPS-stimulated BV2 cells. Format: cell-based, mouse. The following applies: free glibenclamide 10 to 80 μM for 60 h, then LPS for 8 h. The method, then: as §2, with “BV2 cells seeded into multiplates were exposed to LPS (0.5 µg/mL) in presence or absence of glibenclamide (40 µM), empty mApoE-MSLP1-liposomes and mApoE-MSLP1 loaded with glibenclamide.” left out

“SKK(stearate)GSALGQIGPSK(stearate)KS [c-MSLP]”: the “HPLC peak of lipopeptide after incubation with MMP2” value (from here on “HPLC peak of lipopeptide”) at Recombinant human MMP2 is reported as “still present”.
Consider “SKK(stearate)SGAKPRA-LTASK(stearate)KS [MSLP-2, MMP2/9-responsive lipopeptide with two stearate tails]”, for which, on Recombinant human MMP2, the “HPLC peak of lipopeptide” value is “still present”. Also, the cleavage by pronase result with pronase (10 μg/mL pronase) is reported as “complete cleavage”. Further, in the data set with pronase (lower pronase concentrations (1 ng/mL, 0.1 μg/mL)), the “change of intensity of HPLC peak with pronase” value is given as “no significant change”.
For “SKK(stearate)SGPLGIAGQSK(stearate)KS [MSLP-1, MMP2-responsive lipopeptide with two stearate tails]”, the “HPLC peak of lipopeptide” value on Recombinant human MMP2 is “completely disappeared”.
With `COc1ccc(Cl)cc1C(=O)NCCc1ccc(S(=O)(=O)NC(=O)NC2CCCCC2)cc1` [glibenclamide], in the data set on primary neurons [1], the “cell viability (CCK8)” value is listed as “did not affect cell viability”. The “cytotoxicity (LDH release)” value with primary neurons [2] is reported as “did not increase cytotoxicity”. Besides, in data set [3], the TNFα levels result is “dose-dependent reduction”. Moreover, in data set [4], the IL-6 levels result is listed as “dose-dependent reduction”.

Values taken from paper PMC9698607, “Dual Functionalized Liposomes for Selective Delivery of Poorly Soluble Drugs to Inflamed Brain Regions” (Pharmaceutics, 2022).
